Measurements as given in patent US7014990B2, “Machine perfusion solution for organ and biological tissue preservation” (priority 2000, dated 2006).

Assay type: physicochemical
Method: A machine perfusion solution of the invention may be prepared by combining the components described above with sterile water, such as distilled and/or deionized water. For example, to prepare the solution, approximately 700–900 mL, or preferably about 800 mL, of sterile water is poured into a one liter beaker at approximately room temperature. Although a one liter beaker is used in this example, any other container of any size may be used to prepare the solution, where the component amounts would be adjusted accordingly. In the most preferred embodiment, the following are added, in any order, to the solution and each is mixed until dissolved in the solution: approximately […] sodium gluconate, approximately […] potassium phosphate, approximately […] adenine, approximately […] of ribose, approximately […] of calcium chloride, and approximately 50 g modified pentastarch. The modified pentastarch is a fractionated colloid mixture of 40–60 kDaltons in diameter and is modified by infusing the pentastarch under 3 atm of pressure through a dialyzing filter with a bore size of about 40–60 kDaltons. About […] magnesium gluconate, approximately […] HEPES, approximately […] glucose, and approximately […] mannitol are also added, in any order, and mixed. Approximately 40 U of insulin is also added. […]

With `CCCCC[C@H](O)/C=C/[C@H]1[C@H](O)CC(=O)[C@@H]1CCCCCCC(=O)O` [modified PGE1, prostaglandin E1] as the compound, how does the “half-life lengthened by a multiple” value read?
Its value is “about 15”.
